Where two headings read alike, the source gives them in different places. One block for each compound: values may come before it.
How the values were obtained:
[1] = biological target: recombinant human GALK1 (Homo sapiens, UniProt P51570); assay: hGALK1 biochemical activity assay (Kinase-Glo Plus, ATP depletion)
In short: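 Turnover is measured as ATP depletion by Kinase-Glo Plus luminescence after a 1 h room-temperature reaction. Compounds span 11 concentrations, 57.4 μM–0.97 nM, in final 20 mM HEPES pH 8.0 with 5 mM MgCl2. The substrate solution held 35 μM ATP; the added solution held 5 nM human or mouse GALK1 and 100 μM galactose.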

[2] = biological target: recombinant mouse GALK1 (Mus musculus, UniProt Q9R0N0); assay: mGALK1 biochemical activity assay (Kinase-Glo Plus, ATP depletion)
In short: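 Recombinant GALK1 (5 nM) with 100 μM galactose; GALK1 turnover read as ATP depletion by Kinase-Glo Plus luminescence. Reaction ran 1 h at room temperature before detection reagent was added.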

[3] = aqueous kinetic solubility
[4] = rat microsomal stability (RLM)
[5] = PAMPA permeability
[6] = Tables 2-15, 35 μM ATP, 100 μM galactose, 1 h, bracketed figure after some values (e.g. −1.2) is undefined and not reported, read-out: hGALK IC50
[7] = recombinant human GALK1, Kinase-Glo Plus ATP depletion, read-out: hGALK
[8] = Tables 2-15, 35 μM ATP, 100 μM galactose, 1 h, bracketed figure after some values is undefined and not reported, read-out: mGALK IC50
[9] = recombinant mouse GALK1, Kinase-Glo Plus ATP depletion, read-out: mGALK
[10] = recombinant human GALK1, Kinase-Glo Plus ATP depletion, bracketed figure in the cell, e.g. (−1.2), is not defined in the text shown, read-out: hGALK
[11] = recombinant mouse GALK1, Kinase-Glo Plus ATP depletion, bracketed figure in the cell, e.g. (−1.2), is not defined in the text shown, read-out: mGALK
[12] = microsomal stability half-life, minutes
[13] = Tables 2-15, 35 μM ATP, 100 μM galactose, 1 h, bracketed figure after some values is undefined and not reported
[14] = recombinant mouse GALK1, Kinase-Glo Plus ATP depletion

recombinant human GALK1, sequence (P51570 whole entry): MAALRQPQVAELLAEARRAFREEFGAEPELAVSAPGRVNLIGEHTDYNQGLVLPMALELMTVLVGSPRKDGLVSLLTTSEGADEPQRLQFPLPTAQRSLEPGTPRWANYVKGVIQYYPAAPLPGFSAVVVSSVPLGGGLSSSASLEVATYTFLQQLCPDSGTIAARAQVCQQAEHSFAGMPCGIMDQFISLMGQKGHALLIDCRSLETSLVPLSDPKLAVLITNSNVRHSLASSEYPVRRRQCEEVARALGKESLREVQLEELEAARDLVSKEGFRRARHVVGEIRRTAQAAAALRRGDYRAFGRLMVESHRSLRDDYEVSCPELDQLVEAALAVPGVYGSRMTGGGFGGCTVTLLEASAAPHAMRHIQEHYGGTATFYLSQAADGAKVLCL
recombinant mouse GALK1, sequence (Q9R0N0 whole entry): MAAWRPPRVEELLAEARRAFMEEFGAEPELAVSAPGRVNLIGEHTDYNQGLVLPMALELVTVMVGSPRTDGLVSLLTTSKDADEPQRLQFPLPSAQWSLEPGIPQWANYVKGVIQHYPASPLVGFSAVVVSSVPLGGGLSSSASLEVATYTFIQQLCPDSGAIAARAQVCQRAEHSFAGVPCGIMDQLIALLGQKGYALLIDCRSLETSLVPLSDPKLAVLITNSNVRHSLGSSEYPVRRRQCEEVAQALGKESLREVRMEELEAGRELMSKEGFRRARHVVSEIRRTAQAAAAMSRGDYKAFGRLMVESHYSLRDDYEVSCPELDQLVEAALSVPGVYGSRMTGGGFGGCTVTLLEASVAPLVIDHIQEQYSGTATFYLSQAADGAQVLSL

SMILES: CCOC(=O)N1C(Nc2nc3ccccc3o2)=NC(c2ccccc2Cl)C(C(=O)Nc2cc(C(=O)O)ccn2)=C1C (stereo not shown) [Compound 274, 2-(2-(benzo[d]oxazol-2-ylamino)-4-(2-chlorophenyl)-1-(ethoxycarbonyl)-6-methyl-1,4-dihydropyrimidine-5-carboxamido)isonicotinic acid]
IC50 [1, 10]: 9.68 µM
IC50 [2, 11]: 19.3 µM
Sol. ([3]; aqueous kinetic solubility): >85 µg/mL
Metab. Stabil. (m) [4, 12]: >30 m
Perm. (1 × 10^−6 cm/sec) ([5]; PAMPA): <1 1 × 10^−6 cm/sec

SMILES: O=C(Nc1nncs1)C1=C(C(F)(F)F)NC(Nc2nc3ccccc3o2)=NC1c1ccccc1Cl (stereo not shown) [Compound 246, 2-(benzo[d]oxazol-2-ylamino)-4-(2-chlorophenyl)-N-(1,3,4-thiadiazol-2-yl)-6-(trifluoromethyl)-1,4-dihydropyrimidine-5-carboxamide]
IC50 [1, 10]: 13.7 µM
IC50 [2, 11]: 17.2 µM
Sol. ([3]; aqueous kinetic solubility): 21.9 µg/mL
Metab. Stabil. (m) [4, 12]: >30 m
Perm. (1 × 10^−6 cm/sec) ([5]; PAMPA): 715.1 1 × 10^−6 cm/sec

SMILES: CCOc1ccc(C2N=C(Nc3nc4ccc(F)cc4o3)NC(C)=C2C(=O)Nc2cc(C(=O)O)ccn2)c(Cl)c1 (stereo not shown) [Compound 67, 2-(4-(2-chloro-4-ethoxyphenyl)-2-((6-fluorobenzo[d]oxazol-2-yl)amino)-6-methyl-1,4-dihydropyrimidine-5-carboxamido)isonicotinic acid]
IC50 [1, 6]: 0.69 µM
IC50 [1, 7]: 0.69 µM
IC50 [2, 8]: 3.85 µM
IC50 [2, 9]: 3.85 µM
Sol. [3]: 11.3 µg/mL
Metab. Stabil. (m) ([4]; microsomal half-life): >30 m
Perm. (1 × 10^−6 cm/sec) [5]: <1 1 × 10^−6 cm/sec

SMILES: CC1=C(C(=O)Nc2ccc([N+](=O)[O-])cc2)C(c2ccccc2Cl)N=C(Nc2nc3ccccc3o2)N1 (stereo not shown) [Compound 163, 2-(benzo[d]oxazol-2-ylamino)-4-(2-chlorophenyl)-6-methyl-N-(4-nitrophenyl)-1,4-dihydropyrimidine-5-carboxamide]
IC50 [1, 6]: 3.43 µM
IC50 [1, 7]: 3.43 µM
IC50 [2, 8]: 3.43 µM
IC50 [2, 9]: 3.43 µM
Sol. ([3]; aqueous kinetic solubility): <1 µg/mL
Metab. Stabil. (m) ([4]; microsomal stability half-life): >30 m
Perm. (1 × 10^−6 cm/sec) ([5]; PAMPA): <7.3 1 × 10^−6 cm/sec

SMILES: CC1=C(C(=O)Nc2cc(C(=O)O)ccn2)C(c2ccc(-c3ccc(C(F)(F)F)nc3)cc2Cl)N=C(Nc2nc3ccc(F)cc3o2)N1 (stereo not shown) [Compound 70, 2-(4-(2-chloro-4-(6-(trifluoromethyl)pyridin-3-yl)phenyl)-2-((6-fluorobenzo[d]oxazol-2-yl)amino)-6-methyl-1,4-dihydropyrimidine-5-carboxamido)isonicotinic acid]
IC50 [1, 6]: 1.21 µM
IC50 [1, 7]: 1.21 µM
IC50 [2, 8]: 3.85 µM
IC50 [2, 9]: 3.85 µM
Sol. [3]: 28.6 µg/mL
Metab. Stabil. (m) ([4]; microsomal half-life): >30 m
Perm. (1 × 10^−6 cm/sec) [5]: <1 1 × 10^−6 cm/sec

SMILES: COC(=O)c1csc(NC(=O)C2=C(C)NC(Nc3nc4ccccc4o3)=NC2c2ccccc2Cl)n1 (stereo not shown) [Compound 186, methyl 2-(2-(benzo[d]oxazol-2-ylamino)-4-(2-chlorophenyl)-6-methyl-1,4-dihydropyrimidine-5-carboxamido)thiazole-4-carboxylate]
IC50 [1, 6]: 12.2 µM
IC50 [1, 7]: 12.2 µM
IC50 [2, 8]: 13.7 µM
IC50 [2, 9]: 13.7 µM
Sol. ([3]; aqueous kinetic solubility): <1 µg/mL
Metab. Stabil. (m) ([4]; microsomal stability half-life): >30 m
Perm. (1 × 10^−6 cm/sec) ([5]; PAMPA): 65.6 1 × 10^−6 cm/sec

SMILES: CCn1cc(CNC(=O)C2=C(C)NC(Nc3nc4cccc(N)c4o3)=NC2c2ccc(C)cc2Cl)cn1 (stereo not shown) [Compound 117, 2-((7-aminobenzo[d]oxazol-2-yl)amino)-4-(2-chloro-4-methylphenyl)-6-methyl-N-((1-ethyl-1H-pyrazol-4-yl)methyl)-1,4-dihydropyrimidine-5-carboxamide]
IC50 [1, 7]: 0.17 µM
IC50 [2, 8]: 3.06 µM
Sol. [3]: 2.43 µg/mL
Metab. Stabil. (m) ([4]; microsomal half-life): 11.3 m
Perm. (1 × 10^−6 cm/sec) [5]: 360.4 1 × 10^−6 cm/sec

SMILES: CC1=C(C(=O)NCc2ccccc2CO)C(c2ccccc2Cl)N=C(Nc2nc3ccccc3o2)N1 (stereo not shown) [Compound 229, 2-(benzo[d]oxazol-2-ylamino)-4-(2-chlorophenyl)-N-(2-(hydroxymethyl)benzyl)-6-methyl-1,4-dihydropyrimidine-5-carboxamide]
IC50 [1, 6]: 6.11 µM
IC50 [2, 8]: 15.3 µM
IC50 [2, 9]: 15.3 µM
Sol. ([3]; aqueous kinetic solubility): <1 µg/mL
Metab. Stabil. (m) ([4]; microsomal stability half-life): 5.0859 m
Perm. (1 × 10^−6 cm/sec) ([5]; PAMPA): 1362.3 1 × 10^−6 cm/sec

SMILES: CC1=C(C(=O)Nc2cc(C(=O)O)ccn2)C(c2ccccc2Cl)N=C(Nc2nc3cccc([N+](=O)[O-])c3o2)N1 (stereo not shown) [Compound 23, 2-(4-(2-chlorophenyl)-6-methyl-2-((7-nitrobenzo[d]oxazol-2-yl)amino)-1,4-dihydropyrimidine-5-carboxamido)isonicotinic acid]
IC50 [1, 6]: 19.3 µM
IC50 [1, 7]: 19.3 µM
IC50 [2, 8]: 38.5 µM
IC50 [2, 9]: 38.5 µM
Sol. [3]: 7.3 µg/mL
Metab. Stabil. (m) ([4]; microsomal half-life): >30 m
Perm. (1 × 10^−6 cm/sec) [5]: 31.0 1 × 10^−6 cm/sec

SMILES: CC1=C(C(=O)NCc2cnn(C)c2)C(c2ccc(C)cc2Cl)N=C(Nc2nc3ncccc3o2)N1 (stereo not shown) [Compound 105, 4-(2-chloro-4-methylphenyl)-6-methyl-N-((1-methyl-1H-pyrazol-4-yl)methyl)-2-(oxazolo[4,5-b]pyridin-2-ylamino)-1,4-dihydropyrimidine-5-carboxamide]
IC50 [1, 6]: 15.3 µM
IC50 [1, 7]: 15.3 µM
mGALK IC50 [2, 13]: inactive
mGALK (μM) [2, 14]: in- active
Sol. [3]: >49 µg/mL
Metab. Stabil. (m) ([4]; microsomal half-life): 6.149 m
Perm. (1 × 10^−6 cm/sec) [5]: 62.84 1 × 10^−6 cm/sec

SMILES: CC1=C(C(=O)Nc2cc(C(=O)O)ccn2)C(c2ccc(-c3ccc(C)nc3)cc2Cl)N=C(Nc2nc3ccc(F)cc3o2)N1 (stereo not shown) [Compound 69, 2-(4-(2-chloro-4-(6-methylpyridin-3-yl)phenyl)-2-((6-fluorobenzo[d]oxazol-2-yl)amino)-6-methyl-1,4-dihydropyrimidine-5-carboxamido)isonicotinic acid]
IC50 [1, 7]: 0.34 µM
IC50 [2, 8]: 1.22 µM
IC50 [2, 9]: 1.22 µM
Sol. [3]: >90 µg/mL
Metab. Stabil. (m) ([4]; microsomal half-life): >30 m
Perm. (1 × 10^−6 cm/sec) [5]: <1 1 × 10^−6 cm/sec

The remaining lines, values ahead:

IC50 [1, 6]: 19.3 µM
IC50 [1, 7]: 19.3 µM
IC50 [2, 8]: 34.3 µM
IC50 [2, 9]: 34.3 µM
Sol. ([3]; aqueous kinetic solubility): 47.5 µg/mL
Metab. Stabil. (m) ([4]; microsomal stability half-life): >30 m
Perm. (1 × 10^−6 cm/sec) ([5]; PAMPA): 5.0 1 × 10^−6 cm/sec
SMILES: CC1=C(C(=O)Nc2cccc(-c3nnn[nH]3)c2)C(c2ccccc2Cl)N=C(Nc2nc3ccccc3o2)N1 (stereo not shown) [Compound 175, N-(3-(1H-tetrahydro-5-yl)phenyl)-2-(benzo[d]oxazol-2-ylamino)-4-(2-chlorophenyl)-6-methyl-1,4-dihydropyrimidine-5-carboxamide]

IC50 [1, 10]: 3.43 µM
IC50 [2, 11]: 19.3 µM
Sol. ([3]; aqueous kinetic solubility): 6.5 µg/mL
Metab. Stabil. (m) [4, 12]: >30 m
Perm. (1 × 10^−6 cm/sec) ([5]; PAMPA): 208.7 1 × 10^−6 cm/sec
SMILES: CC1=C(C(=O)Nc2nncs2)C(c2ccncc2Br)N=C(Nc2nc3ccccc3o2)N1 (stereo not shown) [Compound 255, 2-(benzo[d]oxazol-2-ylamino)-4-(3-bromopyridin-4-yl)-6-methyl-N-(1,3,4-thiadiazol-2-yl)-1,4-dihydropyrimidine-5-carboxamide]

IC50 [1, 6]: 4.32 µM
IC50 [1, 7]: 4.32 µM
IC50 [2, 8]: 6.85 µM
IC50 [2, 9]: 6.85 µM
Sol. ([3]; aqueous kinetic solubility): <1 µg/mL
Metab. Stabil. (m) ([4]; microsomal stability half-life): >30 m
Perm. (1 × 10^−6 cm/sec) ([5]; PAMPA): <6.3 1 × 10^−6 cm/sec
SMILES: CC1=C(C(=O)Nc2ccc(C(N)=O)cc2)C(c2ccccc2Cl)N=C(Nc2nc3ccccc3o2)N1 (stereo not shown) [Compound 181, 2-(benzo[d]oxazol-2-ylamino)-N-(4-carbamoylphenyl)-4-(2-chlorophenyl)-6-methyl-1,4-dihydropyrimidine-5-carboxamide]

IC50 [1, 7]: 4.85 µM
IC50 [2, 8]: 12.2 µM
IC50 [2, 9]: 12.2 µM
Sol. ([3]; aqueous kinetic solubility): <1 µg/mL
Metab. Stabil. (m) ([4]; microsomal stability half-life): 6.574 m
Perm. (1 × 10^−6 cm/sec) ([5]; PAMPA): 868.8 1 × 10^−6 cm/sec
SMILES: CC1=C(C(=O)NCc2cccc(CO)c2)C(c2ccccc2Cl)N=C(Nc2nc3ccccc3o2)N1 (stereo not shown) [Compound 227, 2-(benzo[d]oxazol-2-ylamino)-4-(2-chlorophenyl)-N-(3-(hydroxymethyl)benzyl)-6-methyl-1,4-dihydropyrimidine-5-carboxamide]

IC50 [1, 10]: 6.85 µM
IC50 [2, 11]: 12.2 µM
Sol. ([3]; aqueous kinetic solubility): <1 µg/mL
Metab. Stabil. (m) [4, 12]: >30 m
Perm. (1 × 10^−6 cm/sec) ([5]; PAMPA): 29.8 1 × 10^−6 cm/sec
SMILES: CC1=C(C(=O)Nc2nncs2)C(c2ccccc2C(F)(F)F)N=C(Nc2nc3ccccc3o2)N1 (stereo not shown) [Compound 263, 2-(benzo[d]oxazol-2-ylamino)-6-methyl-N-(1,3,4-thiadiazol-2-yl)-4-(2-(trifluoromethyl)phenyl)-1,4-dihydropyrimidine-5-carboxamide]

IC50 [1, 6]: 17.2 µM
IC50 [1, 7]: 17.2 µM
mGALK IC50 [2, 13]: inactive
mGALK (μM) [2, 14]: in- active
Sol. [3]: 4.8 µg/mL
Metab. Stabil. (m) ([4]; microsomal half-life): 3.664 m
Perm. (1 × 10^−6 cm/sec) [5]: 355.44 1 × 10^−6 cm/sec
SMILES: CC1=C(C(=O)NCc2cnn(C)c2)C(c2ccc(C)cc2Cl)N=C(Nc2nc3cccnc3o2)N1 (stereo not shown) [Compound 107, 4-(2-chloro-4-methylphenyl)-6-methyl-N-((1-methyl-1H-pyrazol-4-yl)methyl)-2-(oxazolo[5,4-b]pyridin-2-ylamino)-1,4-dihydropyrimidine-5-carboxamide]
